Measured values reported in patent US5232684A, “Labelled resiniferatoxin, compositions thereof, and methods for using the same” (priority 1990, dated 1993).

Legend:
[1] = molecular target: T1, capsaicin receptor (rat Gasser ganglia) (Rattus norvegicus, UniProt O35433); assay: biochemical; type: binding; conditions: rat Gasser ganglia
T1 construct: from tissue; host or cells: Gasser ganglia of female Sprague-Dawley rats
Protocol: Membrane preparations are obtained from the DRG and Gasser ganglia of female Sprague-Dawley rats (250-300 g); animals are sacrificed by decapitation under ether anesthesia, the ganglia removed and collected into ice-cold disrupting buffer (5 mM KCl, 5.8 mM NaCl, 2 mM MgCl2, 12 mM glucose, 137 mM sucrose, 10 mM HEPES, 5 mM DTT, 2 mM EGTA, pH 7.4). After homogenization with the aid of a Polytron tissue homogenizer, samples are filtered over surgical gauze and then washed twice with the same buffer and stored at -70° C. Particulate fractions are obtained from other rat neural tissues (cerebellum, spinal cord, preoptic region, striatum, substantia nigra) and from DRG of pigs (Mt. Airy Locker Co., Mt. Airy, MD), sheep, cows (kindly provided by Dr. Solomon, USDA, Beltsville, MD), and chickens (Truslow Farms, Chesterton, MD) by a similar procedure.
The binding assays are carried out in a volume of 250 ul, containing assay buffer (same as the disrupting buffer but omitting DTT and EGTA and including 0.75 mM CaCl2), 26-30 ug of membrane protein and 0.25 mg/ml bovine serum albumin. […] Tubes are kept on ice while the additions are made. The assay mixture is incubated for 10 min at 37° C.; it is then cooled on ice. 150 ul of the mixture is pipetted onto Whatman GF/C or GF/F glass fiber filters presoaked with 10 mg/ml bovine serum albumin in 20 mM Tris-Cl (pH 7.4) and filtered immediately. An aliquot of 50 ul of the mixture is removed to determine total radioactivity. The filters are washed with 100 ml of ice-cold 20 mM Tris-Cl, pH 7 4, containing 0.1 mg/ml bovine serum albumin, and the bound radioactivity is determined by scintillation counting. Non-specific binding is determined in the presence of 100-1000 nM non-radioactive RTX.
Binding data from saturation experiments using increasing concentrations of hot ligand are analyzed using the collection of computer programs described by McPherson (McPherson, G.A., Analysis of radioligand binding experiments: a collection of computer programs for the IBM PC, J.Pharmacol.Methods, 14 (1985) 213-228).
Scatchard and Hill transformations are performed by the Equilibrium Binding Data Analysis program referred to as EBDA. Data are further analyzed by the curvilinear regression program LIGAND (Munson, R.J. and Rodbard, D., LIGAND: a versatile computerized approach for characterization of ligand-binding systems, Anal.Biochem, 107 (1980) 220-239).
RTX binding is also analyzed in the presence of a fixed, low (60 pM or 300 pM) concentration of [^3 H]RTX and increasing concentrations of non-radioactive RTX or other ligand. […] The Ki value for RTX is calculated from the relationship Ki =ID50 -L; the Ki values for other ligands are calculated from the general form of the equation (Cheng, Y.C. and Prusoff, W.H., Relation between the inhibition constant (Ki) and the concentration of inhibitor which causes 50 per cent inhibition (I50) of an enzymatic reaction, Biochem. Pharmacol., 22 (1973) 3099-3108) Ki =IC50 /(1+L/Kd) where L=concentration of labelled ligand and Kd =dissociation constant of radioactive ligand as determined in the saturation experiments using variable concentrations of hot ligand. Comparison of the quality of fit using single and multiple site competition models is performed by the LIGAND program.
Gasser ganglia represents the […] homolog of the dorsal root ganglia.

[2] = system: substantia nigra; assay: [^3H]RTX binding to rat substantia nigra
Protocol: Membrane preparations are obtained from the DRG and Gasser ganglia of female Sprague-Dawley rats (250-300 g); animals are sacrificed by decapitation under ether anesthesia, the ganglia removed and collected into ice-cold disrupting buffer (5 mM KCl, 5.8 mM NaCl, 2 mM MgCl2, 12 mM glucose, 137 mM sucrose, 10 mM HEPES, 5 mM DTT, 2 mM EGTA, pH 7.4). After homogenization with the aid of a Polytron tissue homogenizer, samples are filtered over surgical gauze and then washed twice with the same buffer and stored at -70° C. […]
(§1) The binding assays are carried out in a volume of 250 ul, containing assay buffer (same as the disrupting buffer but omitting DTT and EGTA and including 0.75 mM CaCl2), 26-30 ug of membrane protein and 0.25 mg/ml bovine serum albumin. […] An aliquot of 50 ul of the mixture is removed to determine total radioactivity. The filters are washed with 100 ml of ice-cold 20 mM Tris-Cl, pH 7 4, containing 0.1 mg/ml bovine serum albumin, and the bound radioactivity is determined by scintillation counting. Non-specific binding is determined in the presence of 100-1000 nM non-radioactive RTX. […]

[3] = system: capsaicin receptor (porcine DRG subcellular fractions); type: binding, pig
Protocol: Subcellular fractions are prepared by a modification of the method of Bastiaensen et al. (Bastiaensen, E., Miserez, B. and De Potter, W., Subcellular fractionation of bovine ganglion stellatum: co-storage of noradrenaline, Met-enkephalin and neuropeptide Y in large `dense-cored` vesicles, Brain Res., 442 (1988) 124-130. ) Briefly: DRG are dissected free from capsule, cut into small pieces with scissors, and then homogenized with a teflon pestle (20 strokes) in ice-cold 0.25 M sucrose/ 20 mM Tris-Cl (pH 7.4) buffer. The homogenate is filtered over surgical gauze; it is then centrifuged for 10 min at 2000 gmax, giving a pellet P1, and again at 10 000 gmax for 15 min giving a pellet P2. The P1 and P2 pellets are saved as nuclear and mitochondrial fractions for binding studies. […]
as §1

T1 sequence (O35433 whole entry): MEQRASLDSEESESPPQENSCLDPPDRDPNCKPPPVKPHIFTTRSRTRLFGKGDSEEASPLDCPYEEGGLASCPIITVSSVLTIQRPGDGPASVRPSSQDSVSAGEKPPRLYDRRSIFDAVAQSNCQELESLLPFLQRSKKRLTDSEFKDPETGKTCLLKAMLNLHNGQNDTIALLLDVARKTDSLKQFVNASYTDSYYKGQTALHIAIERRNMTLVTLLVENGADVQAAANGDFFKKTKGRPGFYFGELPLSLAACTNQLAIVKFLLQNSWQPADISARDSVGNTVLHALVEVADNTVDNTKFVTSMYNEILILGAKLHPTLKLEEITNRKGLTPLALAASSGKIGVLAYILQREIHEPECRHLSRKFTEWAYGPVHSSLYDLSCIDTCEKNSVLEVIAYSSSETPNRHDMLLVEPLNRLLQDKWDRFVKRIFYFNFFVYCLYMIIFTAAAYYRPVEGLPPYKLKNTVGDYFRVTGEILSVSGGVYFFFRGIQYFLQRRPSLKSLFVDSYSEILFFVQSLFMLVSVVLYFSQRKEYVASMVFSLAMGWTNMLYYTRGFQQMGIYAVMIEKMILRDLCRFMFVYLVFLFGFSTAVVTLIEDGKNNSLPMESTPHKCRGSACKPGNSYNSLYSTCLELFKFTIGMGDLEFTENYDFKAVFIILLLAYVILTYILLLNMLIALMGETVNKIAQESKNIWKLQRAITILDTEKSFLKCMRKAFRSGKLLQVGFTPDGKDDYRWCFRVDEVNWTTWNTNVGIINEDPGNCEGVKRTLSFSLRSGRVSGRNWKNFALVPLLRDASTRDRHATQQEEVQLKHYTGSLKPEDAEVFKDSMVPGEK

How did the Hill coefficient [1] turn out when `C=C(C)[C@]12C[C@@H](C)[C@@]34O[C@](Cc5ccccc5)(O[C@@H]1[C@@H]3C=C(COC(=O)Cc1ccc(O)c(OC)c1)C[C@]1(O)C(=O)C(C)=C[C@@H]41)O2` [[^3 H]RTX, [^3 H]resiniferatoxin] was run?
Its Hill coefficient is 0.87.

And the Bmax ([1]; 3 separate experiments, LIGAND)?
Its Bmax is 90 fmol/mg.

And the Kd ([1]; 3 separate experiments, LIGAND)?
Its Kd is 0.13 nM.

What about the “detection of [^3H]RTX binding” value [2] of the same compound?
Its value is “very difficult”.

What about the “specific [^3H]RTX binding, microsomal/plasma membrane fraction over mitochondrial fraction” value ([3]; fixed 300 pM [^3H]RTX, preliminary) of the same compound?
Its value is 5 fold.

What about the “specific [^3H]RTX binding in the nuclear pellet” value ([3]; nuclear pellet) of the same compound?
The value was “No specific [^3 H]RTX binding”.
